Measurements published in patent US10779537B2, “1H-pyrrolopyridine compound, N-oxide thereof or salt thereof, agricultural and horticultural insecticide comprising the compound, and method for using the insecticide” (Nihon Nohyaku Co., Ltd., priority 2016, dated 2020).

Assays:
Plutella xylostella = test: Insecticidal test on Plutella xylostella (dip of Chinese cabbage seedlings with laid eggs); assay type: in vivo; conditions: 144 h, seedlings with laid eggs dipped about 30 seconds, 25° C., 6 days after dip treatment, criteria of Test Example 2, read-out: insecticidal efficacy (corrected mortality rate, hatched larvae)
Excerpt: Insecticidal Test on Plutella xylostella
Adults of Plutella xylostella were released onto Chinese cabbage seedlings and allowed to lay eggs thereon. At 2 days after the release of the adults, the Chinese cabbage seedlings with laid eggs were dipped for about 30 seconds in agrochemical dispersions diluted to 500 ppm, each of which contained a different condensed heterocyclic compound represented by the general formula (1) of the present invention as an active ingredient. After air-dried, the seedlings were kept in a thermostatic chamber at 25° C. At 6 days after the dip treatment, the number of hatched larvae per plot was counted, the mortality rate was calculated according to the formula shown below, and the insecticidal efficacy was evaluated according to the criteria of Test Example 2. This test was conducted in triplicate using 10 adults of Plutella xylostella per plot. Corrected mortality rate (%)=100×(Number of hatched larvae in a non-treatment plot−Number of hatched larvae in a treatment plot)/Number of hatched larvae in a non-treatment plot [Math. 3]

Laodelphax striatellus = test: Insecticidal test on Laodelphax striatellus (rice seedling dip); assay type: in vivo; conditions: 192 h, rice seedlings dipped 30 seconds, ten 3rd-instar larvae, 8 days after inoculation, read-out: insecticidal efficacy (corrected mortality rate)
Excerpt: Insecticidal Test on Laodelphax striatellus
The condensed heterocyclic compounds represented by the general formula (1) of the present invention or salts thereof were separately dispersed in water and diluted to 500 ppm. Rice plant seedlings (variety: Nihonbare) were dipped in the agrochemical dispersions for 30 seconds. After air-dried, each seedling was put into a separate glass test tube and inoculated with ten 3rd-instar larvae of Laodelphax striatellus, and then the glass test tubes were capped with cotton plugs. At 8 days after the inoculation, the numbers of surviving larvae and dead larvae were counted, the corrected mortality rate was calculated according to the formula shown below, and the insecticidal efficacy was evaluated according to the criteria shown below. Corrected mortality rate (%)=100×(Survival rate in a non-treatment plot−Survival rate in a treatment plot)/Survival rate in a non-treatment plot [Math. 2] Corrected Mortality Rate A: the corrected mortality rate is 100%. B: the corrected mortality rate is 90 to 99%. C: the corrected mortality rate is 80 to 89%. D: the corrected mortality rate is 50 to 79%.

Compound	mortality at 500 ppm (Plutella xylostella)	mortality at 500 ppm (Laodelphax striatellus)
CCS(=O)(=O)c1cc(C(F)(F)F)cnc1-c1[nH]c2cc(C(F)(F)F)cnc2c1F [Compound 1-75, 2-(3-ethylsulfonyl-5-trifluoromethylpyridin-2-yl)-3-fluoro-6-trifluoromethyl-1H-pyrrolo[3,2-b]pyridine]	100%	100%
CCS(=O)(=O)c1cc(C(F)(F)F)cnc1-c1[nH]c2cc(C(F)(F)F)cnc2c1Cl [Compound 1-76, 2-(3-ethylsulfonyl-5-trifluoromethylpyridin-2-yl)-3-chloro-6-trifluoromethyl-1H-pyrrolo[3,2-b]pyridine]	100%	100%
CCS(=O)(=O)c1cc(C(F)(F)F)cnc1-c1[nH]c2cc(C(F)(F)F)cnc2c1Br [Compound 1-77, 2-(3-ethylsulfonyl-5-trifluoromethylpyridin-2-yl)-3-bromo-6-trifluoromethyl-1H-pyrrolo[3,2-b]pyridine]	100%	100%
CCS(=O)(=O)c1cc(C(F)(F)F)cnc1-c1c(Cl)c2ncc(C(F)(F)F)cc2n1C(C)=O [Compound 3-3, 1-acetyl-2-(3-ethylsulfonyl-5-trifluoromethylpyridin-2-yl)-3-chloro-6-trifluoromethyl-1H-pyrrolo[3,2-b]pyridine]	100%	100%
